Test results from patent US20060241172A1, “Benzodioxane and benzodioxolane derivatives and uses thereof” (Wyeth, priority 2005, published 2006).
Where a name gives a salt, the structure may show the parent alone. Read-outs that look alike come from different tables or passages of the source.

What was measured:
[1] = target: T1, human 5-HT2C receptor (Homo sapiens, UniProt P28335); test: 5-HT2C receptor-stimulated calcium mobilization (FLIPR) in CHO cells; assay type: cell-based; conditions: for Emax: CHO, read-out: 5-HT2C Function EMax (%)
T1 sequence (P28335 33-458): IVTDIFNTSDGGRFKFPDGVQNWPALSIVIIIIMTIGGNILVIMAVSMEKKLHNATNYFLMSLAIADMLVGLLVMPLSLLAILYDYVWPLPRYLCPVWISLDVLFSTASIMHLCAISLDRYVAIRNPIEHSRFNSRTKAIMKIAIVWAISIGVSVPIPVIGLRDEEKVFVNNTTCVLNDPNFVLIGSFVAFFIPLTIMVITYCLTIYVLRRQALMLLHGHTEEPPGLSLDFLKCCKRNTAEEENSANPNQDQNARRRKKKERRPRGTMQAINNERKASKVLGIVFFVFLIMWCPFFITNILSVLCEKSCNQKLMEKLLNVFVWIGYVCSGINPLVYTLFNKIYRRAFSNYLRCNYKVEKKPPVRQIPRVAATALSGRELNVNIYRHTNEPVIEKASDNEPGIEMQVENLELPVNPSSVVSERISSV

melting point [°C]	SMILES	also measured
177 to 178	CNCC1COc2cccc(-c3ccccc3C)c2O1 (stereo not shown) (as salt: fumarate) [Compound I-17, N-Methyl-N-{[8-(2-methylphenyl)-2,3-dihydro-1,4-benzodioxin-2-yl]methyl}amine]	–
206 to 208	NC[C@@H]1Oc2cc(F)cc(-c3c(Cl)cccc3Cl)c2O1 (as salt: hydrochloride) [Compound I-86, 1-[(2R)-4-(2,6-dichlorophenyl)-6-fluoro-1,3-benzodioxol-2-yl]methanamine]	–
232 to 233	CN(C)CC1COc2cccc(-c3ccc(Cl)cc3Cl)c2O1 (stereo not shown) (as salt: fumarate) [Compound I-39, {[8-(2,4-Dichlorophenyl)-2,3-dihydro-1,4-benzodioxin-2-yl]methyl}dimethylamine]	–
192 to 193	NCC1COc2cccc(-c3ccc(Cl)cc3Cl)c2O1 (stereo not shown) (as salt: fumarate) [Compound I-7, {[8-(2,4-Dichlorophenyl)-2,3-dihydro-1,4-benzodioxin-2-yl]methyl}amine]	–
210 to 211	NCC1COc2cccc(-c3ccccc3Cl)c2O1 (stereo not shown) (as salt: fumarate) [Compound I-1, {[8-(2-Chlorophenyl)-2,3-dihydro-1,4-benzodioxin-2-yl]methyl}amine]	–
197 to 199	COc1cccc(-c2cc(Cl)cc3c2O[C@@H](CN)CO3)c1OC (as salt: hydrochloride) [Compound I-63, (2S)-[6-Chloro-8-(2,3-dimethoxy-phenyl)-2,3-dihydro-benzo[1,4]dioxin-2-yl]-methyl amine]	–
220 to 222	Cc1cccc(C)c1-c1cc(Cl)cc2c1O[C@@H](CN)CO2 (as salt: hydrochloride) [Compound I-69, (2S)-[6-Chloro-8-(2,6-dimethyl-phenyl)-2,3-dihydro-benzo[1,4]dioxin-2-yl]-methyl amine]	–
208 to 209	NCC1COc2cccc(-c3ccccc3C(F)(F)F)c2O1 (stereo not shown) (as salt: fumarate) [Compound I-4, ({8-[2-(Trifluoromethyl)phenyl]-2,3-dihydro-1,4-benzodioxin-2-yl}methyl)amine]	–
205 to 206	NC[C@H]1COc2cccc(-c3ccccc3C(F)(F)F)c2O1 (as salt: fumarate) [Compound I-57, 1-{(2S)-8-[2-(trifluoromethyl)phenyl]-2,3-dihydro-1,4-benzodioxin-2-yl}methanamine]	–
194 to 195	CNCC1COc2cccc(-c3cccc(C)c3C)c2O1 (stereo not shown) (as salt: fumarate) [Compound I-25, {[8-(2,3-Dimethylphenyl)-2,3-dihydro-1,4-benzodioxin-2-yl]methyl}methylamine]	–
245 to 246	COc1ccccc1-c1cc(Cl)cc2c1OC(CN)O2 (stereo not shown) (as salt: hydrochloride) [Compound I-92, [6-Chloro-4-(2-methoxy-phenyl)-benzo[1,3]dioxol-2-yl]-methylamine]	–
228 to 230	COc1ccc(Cl)cc1-c1cc(Cl)cc2c1OC(CN)O2 (stereo not shown) (as salt: hydrochloride) [Compound I-94, [6-Chloro-4-(2-methoxy-5-chloro-phenyl)-benzo[1,3]dioxol-2-yl]-methylamine]	–
246 to 248	NCC1Oc2cc(Cl)cc(-c3cc(Cl)ccc3Cl)c2O1 (stereo not shown) (as salt: hydrochloride) [Compound I-98, [6-Chloro-4-(2,5-dichloro-phenyl)-benzo[1,3]dioxol-2-yl]-methylamine]	–
> 250	Cc1cc(Cl)ccc1-c1cc(Cl)cc2c1OC(CN)O2 (stereo not shown) (as salt: hydrochloride) [Compound I-97, [6-Chloro-4-(4-chloro-2-methyl-phenyl)-benzo[1,3]dioxol-2-yl]-methylamine]	–
198 to 199	COc1cccc(-c2cccc3c2OC(CN)CO3)c1OC (stereo not shown) (as salt: fumarate) [Compound I-9, {[8-(2,3-Dimethoxyphenyl)-2,3-dihydro-1,4-benzodioxin-2-yl]methyl}amine]	–
179 to 180	CCNCC1COc2cccc(-c3ccc(Cl)cc3Cl)c2O1 (stereo not shown) (as salt: fumarate) [Compound I-33, N-{[8-(2,4-Dichlorophenyl)-2,3-dihydro-1,4-benzodioxin-2-yl]methyl}ethanamine]	–

More lines, now with the values behind:

SMILES	melting point [°C]	also measured
CNCC1COc2cccc(-c3ccc(F)cc3F)c2O1 (stereo not shown) (as salt: fumarate) [Compound I-28, {[8-(2,4-Difluorophenyl)-2,3-dihydro-1,4-benzodioxin-2-yl]methyl}methylamine]	174 to 175	–
Clc1ccc(-c2cccc3c2OC(CNCC2CC2)CO3)c(Cl)c1 (stereo not shown) (as salt: fumarate) [Compound I-42, (Cyclopropylmethyl) {[8-(2,4-dichlorophenyl)-2,3-dihydro-1,4-benzodioxin-2-yl]methyl}amine]	155 to 156	–
COc1ccccc1-c1cccc2c1O[C@@](C)(CN)CO2 (as salt: fumarate) [Compound I-52, {[(2S)-8-(2-Methoxyphenyl)-2-methyl-2,3-dihydro-1,4-benzodioxin-2-yl]methyl}amine]	128 to 131	–
CN(C)CC1Oc2cc(F)cc(-c3ccccc3Cl)c2O1 (stereo not shown) (as salt: hydrochloride) [Compound I-89, 1-[4-(2-chlorophenyl)-6-fluoro-1,3-benzodioxol-2-yl]-N,N-dimethylmethanamine]	211 to 212	–
Clc1ccccc1-c1cccc2c1OC(CNCC1CC1)CO2 (stereo not shown) (as salt: fumarate) [Compound I-41, {[8-(2-Chlorophenyl)-2,3-dihydro-1,4-benzodioxin-2-yl]methyl}(cyclopropylmethyl)-amine]	138 to 140	–
CNCC1COc2cccc(-c3ccc(F)cc3F)c2O1 (stereo not shown) [Compound I-28, {[8-(2,4-Difluorophenyl)-2,3-dihydro-1,4-benzodioxin-2-yl]methyl}methylamine]	–	Emax [1]: 30%; EC50 ([1]; read-out: 5-HT2C Function EC50): > 500 nM
C=CCNCC1COc2cccc(-c3ccc(Cl)cc3Cl)c2O1 (stereo not shown) (as salt: fumarate) [Compound I-40, N-{[8-(2,4-Dichlorophenyl)-2,3-dihydro-1,4-benzodioxin-2-yl]methyl}prop-2-en-1-amine]	167 to 168	–
CNCC1COc2cccc(-c3cccc(C)c3C)c2O1 (stereo not shown) [Compound I-25, {[8-(2,3-Dimethylphenyl)-2,3-dihydro-1,4-benzodioxin-2-yl]methyl}methylamine]	–	Emax [1]: 30%; EC50 ([1]; read-out: 5-HT2C Function EC50): > 500 nM
CC(C)NCC1COc2cccc(-c3ccccc3Cl)c2O1 (stereo not shown) (as salt: fumarate) [Compound I-36, N-{[8-(2-Chlorophenyl)-2,3-dihydro-1,4-benzodioxin-2-yl]methyl}propan-2-amine]	199 to 200	–
NCC1Oc2cc(F)cc(-c3ccccc3Cl)c2O1 (stereo not shown) (as salt: hydrochloride) [Compound I-84, 1-[4-(2-Chloro-phenyl)-6-fluoro-1,3-benzodioxol-2-yl]methanamine]	192 to 194	–
CNCC1COc2cccc(-c3cc(F)ccc3F)c2O1 (stereo not shown) (as salt: fumarate) [Compound I-29, {[8-(2,5-Difluorophenyl)-2,3-dihydro-1,4-benzodioxin-2-yl]methyl}methylamine]	193 to 194	–
CNCC1COc2cccc(-c3cccc(Cl)c3Cl)c2O1 (stereo not shown) (as salt: fumarate) [Compound I-22, {[8-(2,3-Dichlorophenyl)-2,3-dihydro-1,4-benzodioxin-2-yl]methyl}methylamine]	184 to 185	–
C[C@]1(CN)COc2cccc(-c3ccccc3)c2O1 (as salt: fumarate) [Compound I-48, {[(2S)-2-Methyl-8-phenyl-2,3-dihydro-1,4-benzodioxin-2-yl]methyl}amine]	130 to 133	–
CNCC1COc2cccc(-c3ccccc3C(F)(F)F)c2O1 (stereo not shown) (as salt: fumarate) [Compound I-20, N-Methyl-1-{8-[2-(trifluoromethyl)phenyl]-2,3-dihydro-1,4-benzodioxin-2-yl}methanamine]	184 to 185	–
CNCC1COc2cccc(-c3cc(F)ccc3F)c2O1 (stereo not shown) [Compound I-29, {[8-(2,5-Difluorophenyl)-2,3-dihydro-1,4-benzodioxin-2-yl]methyl}methylamine]	–	EC50 ([1]; read-out: 5-HT2C Function EC50): > 500 nM
NCC1Oc2cc(F)cc(-c3ccccc3C(F)(F)F)c2O1 (stereo not shown) (as salt: hydrochloride) [Compound I-82, 1-[4-(2-Trifluoromethyl-phenyl)-6-fluoro-1,3-benzodioxol-2-yl]methanamine]	178 to 180	–
Cc1cc2c(cc1Cl)N(C(=O)Nc1ccc(Oc3cccnc3C)nc1)CC2 [SB242084, reference compound]	–	EC50 ([1]; reference compounds, read-out: EC50): 0.01 nM
CNCC1COc2cccc(-c3cccc(Cl)c3Cl)c2O1 (stereo not shown) [Compound I-22, {[8-(2,3-Dichlorophenyl)-2,3-dihydro-1,4-benzodioxin-2-yl]methyl}methylamine]	–	Emax [1]: 40%; EC50 ([1]; read-out: 5-HT2C Function EC50): < 100 nM
CNCC1COc2cccc(-c3cc(C)ccc3C)c2O1 (stereo not shown) [Compound I-26, {[8-(2,5-Dimethylphenyl)-2,3-dihydro-1,4-benzodioxin-2-yl]methyl}methylamine]	–	Emax [1]: 50%; EC50 ([1]; read-out: 5-HT2C Function EC50): < 100 nM
CNCC1COc2cccc(-c3ccccc3C)c2O1 (stereo not shown) [Compound I-17, N-Methyl-N-{[8-(2-methylphenyl)-2,3-dihydro-1,4-benzodioxin-2-yl]methyl}amine]	–	Emax [1]: 60%; EC50 ([1]; read-out: 5-HT2C Function EC50): < 100 nM
CNCC1COc2cccc(-c3cccc(F)c3F)c2O1 (stereo not shown) [Compound I-27, {[8-(2,3-Difluorophenyl)-2,3-dihydro-1,4-benzodioxin-2-yl]methyl}methylamine]	–	Emax [1]: 20%; EC50 ([1]; read-out: 5-HT2C Function EC50): 100 to 500 nM
